Structures are written as SMILES. Values joined by “and” are separate entries in the source; they are usually repeats but may differ in a detail not shown here. Identical values can stand only once.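 How tested: cells in 96-well plates exposed to compound for 48 hours at five concentrations. GI50 = concentration required for 50% inhibition of growth. TGI marks complete inhibition of growth.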

What all share (test): NCI tumour cell line growth inhibition, 48 h
Assay [1] has as its system 786-0 renal.
Assay [2] concerns DU-145 prostate.
In assay [3] the test system is HT29 colon.
For assay [4], the system named is NCI-H522 lung.
For assay [5], the system named is SF-268 CNS.
Assay [6] concerns SK-MEL-28 melanoma.
Assay [7] has as its system SN12C renal.
The subject of assay [8] is SW-620 colon.
Assay [9] deals with UACC-257 melanoma.
Assay [10] relates to UO-31 renal.

For `COc1ccc(CNC(=O)c2c(C)n([O-])c3cc(F)c(F)cc3[n+]2=O)cc1`, the GI50 was 16.9 µM in assay [1]; 13.7 µM in assay [2]; 3.91 µM in assay [3]; 11.5 µM in assay [4]; 4.4 µM in [5]; 11.5 µM in assay [6]. Further, the GI50 is 14.2 µM in assay [7], 3.83 µM in assay [8], 10.4 µM in assay [9] and 12.8 µM in assay [10]. In addition, the TGI in assay [1] stood at 30.6 µM; in [2], 26.5 µM; in [3] it was 16 µM; in assay [4] it was 27 µM; in assay [5], 15.7 µM; in assay [6], 23.6 µM. Moreover, the TGI is 27.2 µM in assay [7], 13.1 µM in [8], 23.6 µM in [9] and 26.6 µM in assay [10].

For the molecule `COc1ccc(-c2cc3c(N)ncnc3o2)cc1`, the GI50 in assay [1] was over 25 µM; in [2], 19.9 µM; in [3], over 22.7 µM; in assay [4] it was over 25 µM; in [5], 21.3 µM; in assay [6], over 25 µM. In addition, the GI50 in assay [7] was 14.8 µM; in [8] it was over 25 µM; in [9] it was over 25 µM; in [10] it was 12.4 µM. In addition, the TGI in assay [1], in assay [2], in [3], in assay [4], in [5] and in assay [6] was over 25 µM throughout. Besides, the TGI in assay [7], in assay [8], in assay [9] and in assay [10] was over 25 µM throughout.

As to `CC1SC(c2cccc(Cl)c2)N(NC(=O)C(O)c2ccccc2)C1=O` (stereo unspecified), the GI50 in [1], in [2], in assay [3], in assay [4], in assay [5] and in [6] was over 100 µM throughout. Besides, the GI50 in [7], in assay [8], in assay [9] and in assay [10] was over 100 µM in each case. In addition, the TGI in assay [1], in assay [2], in assay [3], in assay [4], in assay [5] and in assay [6] was over 100 µM throughout. In addition, the TGI in assay [7], in [8], in [9] and in assay [10] was over 100 µM throughout.

Take `COc1cc2c3c(n(CCCN4CCN(CCO)CC4)c(=O)c2cc1OC)-c1cc2c(cc1C3=O)OCO2`: the GI50 in assay [1] is 4.97 µM; in assay [2], 0.107 µM; in assay [3] it was 3.06 µM; in assay [4] it was over 33 µM; in assay [5], 5.23 µM; in assay [6], 17.5 µM. Moreover, the GI50 in assay [7] was over 100 µM; in assay [8] it was 8.37 µM; in assay [9], 30.6 µM; in [10], over 91.5 µM. Also, the TGI is 18 µM in assay [1]; 2.41 µM in assay [2]; 15.9 µM in assay [3]; over 51.2 µM in assay [4]; over 100 µM in assay [5]; 32.1 µM in assay [6]. Besides, the TGI in assay [7] was over 100 µM; in [8], 24.7 µM; in assay [9], over 81.4 µM; in assay [10] it was over 100 µM.

With `CCC(=O)OCN1C(=O)C=CC1=O`, the GI50 was 21.7 µM in [1]; 20 µM in assay [2]; 2.27 µM in assay [4]; 19.1 µM in assay [5]; 16.2 µM in assay [7]; 15.7 µM in assay [9]. Also, the GI50 in assay [10] is 17.5 µM. Moreover, the TGI in assay [1] was 41.4 µM and 11.3 µM; in assay [2], 34.2 µM and 30.2 µM; in [3], 40.8 µM and 35.9 µM; in assay [4] it was 4.64 µM and 4.58 µM; in [5], 36.9 µM and 41.3 µM; in assay [6] it was 33.3 µM and 33.4 µM. For the same molecule, the TGI is 30.5 µM and 35.6 µM in assay [7]; 3.58 µM and 4.43 µM in assay [8]; 29.4 µM and 22.2 µM in assay [9]; 31.7 µM and 20.7 µM in [10].

With `CCCC(CCC)C(=O)O`, the GI50 in assay [1] is over 20000 µM; in assay [2], over 100 µM; in [3], over 100 µM; in assay [4] it was over 100 µM; in [5] it was over 100 µM; in assay [7], over 20000 µM. Also, the GI50 in assay [8], in assay [9] and in assay [10] was over 100 µM in each case. Moreover, the TGI in [1] is over 20000 µM; in [2], over 20000 µM; in assay [3], > 100 µM and 12400 µM; in assay [4], over 20000 µM; in [5] it was > 100 µM and 12000 µM; in assay [6], over 100 µM. In addition, the TGI in [7], in assay [8], in assay [9] and in assay [10] was over 20000 µM throughout.

As for `CC(C)Cn1cnc2c(SCc3ccccn3)nc(N)nc21`, the TGI in [1], in assay [2], in assay [3], in assay [4], in assay [5] and in assay [6] was over 100 µM each time. Besides, the TGI in assay [7], in assay [8], in assay [9] and in assay [10] was over 100 µM in each case.

For `CN1CCN(Cc2ccc(NC(=O)c3cncc(C#Cc4ncc5ccccn45)c3)cc2C(F)(F)F)CC1`, the GI50 in assay [1] was 3 µM; in assay [2], 1.35 µM; in [3] it was 0.827 µM; in assay [4], 1.43 µM; in [5], 2.06 µM; in assay [6], 2.82 µM. In addition, the GI50 in assay [7] is 1.26 µM; in assay [8] it was 0.842 µM; in assay [9], 1.44 µM; in assay [10] it was 1.25 µM. For the same molecule, the TGI in assay [1] came out at 6.4 µM; in assay [2], 4.51 µM; in assay [3], 8.96 µM; in [4], 5.58 µM; in assay [5], 7.22 µM; in assay [6] it was 6.19 µM. Moreover, the TGI came to 4.41 µM in assay [7], 3.12 µM in [8], 4.57 µM in assay [9] and 3.72 µM in [10].

Regarding `CCCNC(=O)Nc1ccc2c(c1)Cc1cc(N(CCCl)CCCl)ccc1-2`, the TGI is over 100 µM in [1]; 60.9 µM in assay [2]; 17.8 µM in assay [3]; 41 µM in assay [4]; over 100 µM in assay [5]; 35.7 µM in assay [6]. The TGI in assay [7] is over 100 µM; in assay [8], over 100 µM; in assay [9], over 100 µM; in [10], 82.2 µM.

On to `O=C(N/N=C/c1cccc(O)c1)c1ccc(C(F)(F)F)nc1Nc1cccc(C(F)(F)F)c1`, for which the GI50 in [1] is 1.92 µM; in assay [2], 1.82 µM; in [3], 3.47 µM; in assay [4], 1.67 µM; in [5], 1.04 µM; in [6], 1.89 µM. Moreover, the GI50 in [7] is 1.79 µM; in assay [8], 1.63 µM; in assay [9], 2.36 µM; in assay [10] it was 1.59 µM. Further, the TGI in assay [1] worked out at 5.17 µM; in assay [2], 10.7 µM; in assay [3], 11.2 µM; in [4] it was 6.72 µM; in assay [5] it was 6.13 µM; in assay [6], 10.1 µM. In addition, the TGI in assay [7] worked out at 6.34 µM; in assay [8], 5.77 µM; in assay [9], 8.44 µM; in [10], 5.08 µM.

Consider `Nc1nc(Cl)c2ncn(Cc3ccc(-c4ccc(CCl)cc4)cc3)c2n1`, for which the GI50 in [1] is 12.9 µM; in [2], 12.6 µM; in assay [3] it was 11.3 µM; in [4], over 100 µM; in [5], 16.2 µM; in assay [6], 14.7 µM. Moreover, the GI50 was 2.54 µM in [7], 14.1 µM in assay [8], 3.24 µM in assay [9] and 17.7 µM in assay [10]. In addition, the TGI in assay [1] is over 100 µM; in assay [2], 25.6 µM; in assay [3], 43.1 µM; in [4], over 100 µM; in assay [5], 36.5 µM; in assay [6], 33.7 µM. Further, the TGI in assay [7] is 10.1 µM; in [8] it was 76.1 µM; in assay [9], 15.2 µM; in assay [10] it was over 100 µM.

Regarding `CC1CC2(C)CC(=O)C1C1C(=O)N(CCN3CCOCC3)C(=O)C12` (stereo unspecified), the GI50 in assay [1], in [2], in [3], in assay [4], in assay [5] and in assay [6] was over 100 µM throughout. In addition, the GI50 in assay [7], in [8], in assay [9] and in assay [10] was over 100 µM each time. Moreover, the TGI in [1], in [2], in assay [3], in assay [4], in [5] and in assay [6] was over 100 µM throughout. In addition, the TGI in assay [7], in assay [8], in [9] and in [10] was over 100 µM throughout.

In the case of `O=C1CC2OCC=C3CN4CCC56c7ccccc7N1C5C2C3CC46` (stereo unspecified) (tested in a mixture with another compound), the GI50 in assay [1], in [2], in [3], in assay [4], in assay [5] and in assay [6] was over 50 µg/mL throughout. Besides, the GI50 in assay [7], in assay [8], in [9] and in [10] was over 50 µg/mL throughout. The TGI in assay [1], in [2], in assay [3], in [4], in [5] and in assay [6] was over 50 µg/mL each time. Further, the TGI in [7], in assay [8], in assay [9] and in [10] was over 50 µg/mL in each case.

With `NC(=S)N=Nc1c(O)[nH]c2ccccc12`, the GI50 in [1] is 142 µM; in [2] it was 126 µM; in assay [3] it was 652 µM; in [4], 159 µM; in assay [5], 189 µM; in [6], 713 µM. The GI50 was 154 µM in assay [7]; 474 µM in assay [8]; 804 µM in [9]; 39 µM and 126 µM in [10]. In addition, the TGI is 296 µM in assay [1]; 284 µM in assay [2]; over 1000 µM in assay [3]; 343 µM in assay [4]; 989 µM in assay [5]; over 1000 µM in assay [6]. For the same molecule, the TGI in assay [7] was 331 µM; in assay [8], over 1000 µM; in [9], over 1000 µM; in assay [10], 504 µM.

For the origin of these results see PubChem BioAssay (NCI).
